Measurements taken from publication PMC8726015 (ACS chemical biology, 2021).

Columns and labels:
[1] = target: T1, human pantothenate kinase hPANK1β (Homo sapiens, UniProt Q8TE04); assay: PK/LDH-coupled kinase assay, substrate turnover; format: biochemical; conditions: read-out: KM or K0.5
T1 sequence (Q8TE04 1-373 isoform Q8TE04-2): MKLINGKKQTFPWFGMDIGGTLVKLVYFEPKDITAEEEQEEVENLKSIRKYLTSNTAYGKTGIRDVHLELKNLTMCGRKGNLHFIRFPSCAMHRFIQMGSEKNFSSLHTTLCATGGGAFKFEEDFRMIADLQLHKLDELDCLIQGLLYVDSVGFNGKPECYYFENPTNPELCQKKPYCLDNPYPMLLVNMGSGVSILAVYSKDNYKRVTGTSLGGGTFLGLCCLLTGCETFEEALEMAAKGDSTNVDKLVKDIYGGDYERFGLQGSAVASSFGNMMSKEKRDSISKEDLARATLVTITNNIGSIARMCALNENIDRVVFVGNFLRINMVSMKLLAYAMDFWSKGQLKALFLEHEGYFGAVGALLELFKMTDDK

[2] = target: T2, human phosphopantothenoylcysteine synthetase (hPPCS) (Homo sapiens, UniProt Q9HAB8); assay: X-ray crystal structure at […] Å; format: biochemical
T2 sequence (Q9HAB8 2-311): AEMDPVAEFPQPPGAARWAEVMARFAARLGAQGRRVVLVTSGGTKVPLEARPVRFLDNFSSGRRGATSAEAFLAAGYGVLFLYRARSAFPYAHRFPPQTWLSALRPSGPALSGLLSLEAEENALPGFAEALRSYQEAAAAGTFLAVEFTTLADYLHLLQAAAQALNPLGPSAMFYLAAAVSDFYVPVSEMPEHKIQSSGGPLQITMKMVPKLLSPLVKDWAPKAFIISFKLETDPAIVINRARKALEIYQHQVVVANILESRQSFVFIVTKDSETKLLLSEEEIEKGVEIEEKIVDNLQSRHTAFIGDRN

[3] = target: T3, fruit fly phosphopantothenoylcysteine synthetase (dPPCS) (Drosophila melanogaster, UniProt Q7KN99); assay: pyrophosphate-coupled NADH oxidation enzyme assay; format: biochemical
T3 sequence (Q7KN99 1-313): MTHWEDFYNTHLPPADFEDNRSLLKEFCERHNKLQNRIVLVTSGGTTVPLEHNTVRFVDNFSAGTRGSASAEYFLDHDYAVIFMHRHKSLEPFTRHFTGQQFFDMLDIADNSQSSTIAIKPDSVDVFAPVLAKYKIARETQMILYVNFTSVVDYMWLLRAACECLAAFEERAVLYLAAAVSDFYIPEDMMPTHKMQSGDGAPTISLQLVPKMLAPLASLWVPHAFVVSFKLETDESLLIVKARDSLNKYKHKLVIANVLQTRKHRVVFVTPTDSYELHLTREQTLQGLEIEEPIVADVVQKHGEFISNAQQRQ

[4] = target: T2, human phosphopantothenoylcysteine synthetase (hPPCS); assay: X-ray crystal structure at […] Å; format: binding

Structure (SMILES) | Km [1] | further results
CC(C)(CO)[C@@H](O)C(=O)NCCC(=O)NCCS [compound 6, PantSH] | 9.85 ± 1.17 µM | –
CC(C)(CO)[C@@H](O)C(=O)NCCC(=O)O [compound 3, Pan] | 6.2 ± 0.88 µM | –
CC(C)(CO)[C@@H](O)C(=O)NCCCC(=O)O [compound 1, HoPan] | 12.1 ± 1.9 µM | –
CC(C)(COP(=O)(O)O)[C@@H](O)C(=O)NCCCC(=O)O [compound 2, P-HoPan] | – | Ki [2]: 13.4 ± 3.6 µM; Ki [3]: 20.9 ± 1.1 µM
Nc1ncnc2c1ncn2[C@@H]1O[C@H](CO[P@](=O)(O)O[P@](=O)(O)NP(=O)(O)O)[C@@H](O)[C@H]1O [AMPPNP] | – | X-ray crystal structure at 1.9 Å (ternary complex with P-HoPan) [4]: electron densities for the co-factor AMPPNP and the ligand P-HoPan observed in both monomers
